{"source": "patent US20070275977A1", "about": "“N-OXIDES OF PYRIDYLMETHYL -PIPERAZINE AND -PIPERIDINE DERIVATIVES” (priority 2006, published 2007)", "key": {"[1]": {"assay": "Brain concentrations in mice after i.v. or p.o. administration, LC-MS", "format": "in vivo", "details": "for concentration at 0.17 h / concentration at 0.5 h / concentration at 1 h / concentration at 3 h / concentration at 7 h / concentration at 24 h: mouse, brain, read-out: piperazine-N-ox analyzed in brain", "protocol": "(§1) The LC-MS system consists of 2 Perkin elmer series 200 micro pumps. The pumps were connected to each other by a 50 pI tee mixer, and connected to a Gilson 215 auto sampler. The method was as follows:\n(§2) The auto sampler was connected to a Waters Atlantis C18 30*4.6 mm column with 3 μm particles. The column was thermo stated in a Perkin Elmer series 200 column oven at 40° C. The column was connected to a Perkin Elmer series 200 UV meter with a 2.7 μl flowcel. The wavelength was set to 254 nm. The UV meter was connected to a Sciex API 150EX mass spectrometer. The mass spectrometer had the following parameters: Scanrange:150-900 a.m.u., polarity: positive; scan mode: profile; resolution Q1: UNIT; step size: 0.10 a.m.u.; time per scan: 0.500 sec; NEB: 10; CUR: 10; IS: 5200; TEM: 325; DF: 30; FP: 225 and EP: 10. The light scattering detector was connected to the Sciex API 150. The light scattering detector was a Sedere Sedex 55 operating at 50° C. and 3 bar N2. The complete system was controlled by a G3 powermac.\n(§3) For oral (p.o.) administration: to the desired quantity (0.5-5 mg) of the solid test compound in a glass tube, some glass beads were added and the solid was milled by vortexing for 2 minutes. After addition of 1 ml of a solution of 1% methylcellulose in water and 2% (v/v) of Poloxamer 188 (Lutrol F68), the compound was suspended by vortexing for 10 minutes. The pH was adjusted to 7. Remaining particles in the suspension were further suspended by using an ultrasonic bath.\nFor intravenous (i.v.) administration: compounds were dissolved in physiological saline (0.9% NaCl) and the pH was adjusted to 7.\nData were averaged (n=3), and collected in table 4."}, "[2]": {"system": "neurotransmitter receptors", "assay": "Pharmacological profile in vitro (overall statement)", "protocol": "(§4) ln vitro affinity for neurotransmitter receptors: The binding data collected below were either obtained by CE REP (128, rue Danton, 92500 Rueil-Malmaison, France) or at Solvay Pharmaceuticals B.V. (C. J. van Houtenlaan 36, 1381 CP Weesp, The Netherlands), using well documented standard procedures. The affinities for dopamine-D2 and 5-HT1A receptors for instance, were measured as described by Creese (1997) and Gozlan (1983) respectively.\nIn vitro (ant)agonistic activity at human D2 receptors and 5-HT1A receptors was measured according to the methods described by Solomon (1974) and Weiss (1985) respectively, on the formation of adenylate cyclase in CHO cell-lines expressing these cloned receptors."}, "Dopamine-D2": {"molecular_target": "Dopamine-D2 (Homo sapiens, UniProt P14416)", "sequence (P14416 whole entry)": "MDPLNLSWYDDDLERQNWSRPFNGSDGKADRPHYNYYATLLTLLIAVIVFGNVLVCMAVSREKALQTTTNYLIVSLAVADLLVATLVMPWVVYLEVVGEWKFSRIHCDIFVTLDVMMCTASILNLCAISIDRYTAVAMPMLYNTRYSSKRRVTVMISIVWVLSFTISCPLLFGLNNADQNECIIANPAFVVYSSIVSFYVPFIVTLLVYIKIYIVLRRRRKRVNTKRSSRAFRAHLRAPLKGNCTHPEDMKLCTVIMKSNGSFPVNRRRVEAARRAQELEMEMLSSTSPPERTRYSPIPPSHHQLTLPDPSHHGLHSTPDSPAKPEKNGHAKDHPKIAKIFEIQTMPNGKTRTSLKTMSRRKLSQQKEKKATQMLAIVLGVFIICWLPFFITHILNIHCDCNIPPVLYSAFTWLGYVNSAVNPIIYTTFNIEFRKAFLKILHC", "assay": "In vitro receptor affinity, Dopamine-D2", "format": "binding", "details": "radioligand [3H]-spiperone, read-out: K1 (in vitro receptor affinity)", "protocol": "as §4"}, "Lower lip retraction": {"system": "Lower lip retraction", "assay": "Lower lip retraction", "format": "in vivo", "details": "po, read-out: Lower Lip Retraction: ED50", "protocol": "as §3\n(§5) Lower lip retraction, an in vivo animal model for serotonin 5-HT1A receptor agonistic activity, was measured according to the method described by Berendsen (1989); Apomorphine-induced climbing behaviour in mice, an in vivo animal model for dopamine-D2 receptor antagonistic activity, was determined according to the method described by Costall (1978)."}, "[3]": {"system": "Apomorphine-induced climbing behaviour in mice", "assay": "Antagonism of apomorphine-induced climbing behaviour in mice", "format": "in vivo", "details": "Mus musculus, po, read-out: Antagon. apomorphine ind. climbing: ED50", "protocol": "as §3, §5"}, "Serotonin-5-HT1A": {"molecular_target": "T1, Serotonin-5-HT1A (Homo sapiens, UniProt P08908)", "T1 sequence (P08908 1-422)": "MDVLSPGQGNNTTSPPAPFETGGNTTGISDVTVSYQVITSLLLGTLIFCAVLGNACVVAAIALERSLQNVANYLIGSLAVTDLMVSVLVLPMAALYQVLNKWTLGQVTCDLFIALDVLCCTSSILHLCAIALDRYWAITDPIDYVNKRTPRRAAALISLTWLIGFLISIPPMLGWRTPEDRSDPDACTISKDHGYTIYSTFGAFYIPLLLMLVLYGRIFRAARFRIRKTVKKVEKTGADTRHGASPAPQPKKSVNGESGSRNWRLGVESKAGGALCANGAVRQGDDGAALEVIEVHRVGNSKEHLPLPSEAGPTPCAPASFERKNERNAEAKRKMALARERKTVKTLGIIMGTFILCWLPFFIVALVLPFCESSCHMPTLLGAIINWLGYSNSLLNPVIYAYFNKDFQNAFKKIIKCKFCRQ", "assay": "In vitro receptor affinity, Serotonin-5-HT1A", "format": "binding", "details": "radioligand [3H]-8-OH-DPAT, read-out: K1 (in vitro receptor affinity)", "protocol": "as §4"}, "[4]": {"assay": "Plasma concentrations in mice after i.v. or p.o. administration, blood analyzed by LC-MS", "format": "in vivo", "details": "piperazine-N-oxide administered", "protocol": "as §1, §2\nas §3, with “Remaining particles in the suspension were further suspended by using an ultrasonic bath.” left out"}, "[5]": {"assay": "Partition coefficient, experimental (Log P)", "format": "physicochemical", "details": "at pH 7.0"}, "[6]": {"assay": "Pharmacological profile in vivo (overall statement)", "protocol": "as §5"}, "[7]": {"details": "iv, 0.5 mg/kg i.v. of administered compound"}, "[8]": {"details": "po, 5 mg/kg p.o. of administered compound"}}, "note": "pKi: −log10 of the molar value. Entries after “also recorded” stand apart in the source; their conditions may differ. Where two headings read alike, the source gives them in different places."}
{"smiles": "[O-][N+]1(Cc2cncc(-c3ccc(F)cc3)c2)CCN(c2cccc3c2OCCO3)CC1", "note": "[piperazine N-oxide]", "values": [{"measurement": "detection of administered compound in brain", "setting": "[1]; i.v. or p.o.", "value": "hardly detected in brain"}, {"measurement": "concentration at 0.17 h", "setting": "[1]; [7]", "value": 3.1, "unit": "ng/g"}, {"measurement": "concentration at 0.5 h", "setting": "[1]; [7]", "value": 4.4, "unit": "ng/g"}, {"measurement": "concentration at 1 h", "setting": "[1]; [7]", "value": 0, "unit": "ng/g"}, {"measurement": "concentration at 3 h", "setting": "[1]; [7]", "value": 0, "unit": "ng/g"}, {"measurement": "concentration at 7 h", "setting": "[1]; [7]", "value": 0, "unit": "ng/g"}, {"measurement": "concentration at 24 h", "setting": "[1]; [7]", "value": 0, "unit": "ng/g"}, {"measurement": "concentration at 0.17 h", "setting": "[1]; [8]", "value": 2.9, "unit": "ng/g"}, {"measurement": "concentration at 0.5 h", "setting": "[1]; [8]", "value": 2.6, "unit": "ng/g"}, {"measurement": "concentration at 1 h", "setting": "[1]; [8]", "value": 0, "unit": "ng/g"}, {"measurement": "concentration at 3 h", "setting": "[1]; [8]", "value": 0, "unit": "ng/g"}, {"measurement": "concentration at 7 h", "setting": "[1]; [8]", "value": 0, "unit": "ng/g"}, {"measurement": "concentration at 24 h", "setting": "[1]; [8]", "value": 0, "unit": "ng/g"}, {"measurement": "pharmacological profile/activity in vitro relative to parent SLV313", "setting": "[2]", "value": "virtually inactive; also recorded: nearly inactive"}, {"measurement": "pKi", "setting": "Dopamine-D2", "value": "< 6.00"}, {"measurement": "ED50", "setting": "Lower lip retraction", "value": 10, "unit": "mg/kg"}, {"measurement": "ED50", "setting": "[3]", "value": 0.3, "unit": "mg/kg"}, {"measurement": "pKi", "setting": "Serotonin-5-HT1A", "value": 7.60}, {"measurement": "time at which plasma concentrations of piperazine-N-oxide and parent molecule cross", "setting": "[4]", "value": "within half an hour"}, {"measurement": "logP", "setting": "[5]", "value": 1.7}, {"measurement": "pharmacological profile/potency in vivo relative to SLV313", "setting": "[6]; in vivo", "value": "equipotent"}, {"measurement": "melting point", "value": "181 to 182", "unit": "°C"}]}
{"smiles": "[O-][n+]1cc(C[N+]2([O-])CCN(c3cccc4c3OCCO4)CC2)cc(-c2ccc(F)cc2)c1", "note": "[SLV313-bis-N-oxide, 4-(2,3-dihydro-benzo[1,4]dioxin-5-yl-1-[5-4-fluorophenyl]-1-oxy-pyridin-3-ylmethyl)piperazine-1-oxide]", "values": [{"measurement": "potency relative to corresponding parent molecule, the pyridine N-oxide", "setting": "[6]; stated by analogy", "value": "equipotent"}]}
